Laboratory results: patent US10464947B2 (Incyte Corporation, priority 2013, dated 2019)

Test system: KMS.12.BM cells
Test: KMS.12.BM Cell Viability Assay (Example B1)
Format: cell-based, human
Conditions: 3 days, Cell Titer-GLO, read-out: KMS cellular IC50
In short: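 KMS.12.BM human myeloma cells, 5000 cells/well in RPMI with 10% FBS, exposed to a compound concentration range for 3 days. Viable cells measured by ATP-based Cell Titer-GLO luminescence after 10 min at room temperature.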

Structure (SMILES) | IC50 [µM]
Cc1noc(C)c1-c1ccc2nc(N3CCC(C)(O)C3)n3c2c1OC[C@@H]3c1ccccn1 (single isomer, unassigned) [Example 146B] | < 1

Same assay, conditions: Homo sapiens, 72 h, 3 days, Cell Titer-GLO, read-out: KMS cellular IC50

Structure (SMILES) | IC50 [µM]
CCNC(=O)c1ncccc1C1COc2c(-c3c(C)noc3C)ccc3[nH]c(=O)n1c23 (single isomer, unassigned) [Example 133, 3-[7-(3,5-dimethylisoxazol-4-yl)-2-oxo-1,2,4,5-tetrahydroimidazo[1,5,4-de][1,4]benzoxazin-4-yl]-N-ethylpyridine-2-carboxamide] | < 1
Cc1noc(C)c1-c1ccc2[nH]c(=O)n3c2c1OCC3c1ccc(F)cc1F (centres unmarked) [Example 8, 7-(3,5-Dimethylisoxazol-4-yl)-4-(2,4-difluorophenyl)-4,5-dihydroimidazo[1,5,4-de][1,4]benzoxazin-2(1H)-one] | < 1
Cc1noc(C)c1-c1ccc2nc(C(=O)N3CCOCC3)n3c2c1OC[C@@H]3c1ccccn1 [Example 94, (4S)-7-(3,5-Dimethylisoxazol-4-yl)-2-(morpholin-4-ylcarbonyl)-4-pyridin-2-yl-4,5-dihydroimidazo[1,5,4-de][1,4]benzoxazine] | < 1
Cc1noc(C)c1-c1cc(C(C)O)c2[nH]c(=O)n3c2c1OC[C@@H]3c1ccccn1 (single isomer, unassigned) [Example 144A] | < 1
Cc1noc(C)c1-c1ccc2nc(N3CCC(C)(O)CC3)n3c2c1OC[C@@H]3c1ccccn1 [Example 194, 1-[(4S)-7-(3,5-dimethylisoxazol-4-yl)-4-pyridin-2-yl-4,5-dihydroimidazo[1,5,4-de][1,4]benzoxazin-2-yl]-4-methylpiperidin-4-ol] | < 1
Cc1noc(C)c1-c1cc(Br)c2[nH]c(=O)n3c2c1OCC3c1ccccc1 (centres unmarked) [Example 45, 9-Bromo-7-(3,5-Dimethylisoxazol-4-yl)-4-phenyl-4,5-dihydroimidazo[1,5,4-de][1,4]benzoxazin-2(1H)-one] | < 1
Cc1noc(C)c1-c1ccc2nc(C3=CCNCC3)n3c2c1OC[C@@H]3c1ccccn1 [Example 104, (4S)-7-(3,5-dimethylisoxazol-4-yl)-4-pyridin-2-yl-2-(1,2,3,6-tetrahydropyridin-4-yl)-4,5-dihydroimidazo[1,5,4-de][1,4]benzoxazine] | < 1
Cc1noc(C)c1-c1ccc2nc(N3CCCC3)n3c2c1OCC3c1ccccc1 (centres unmarked) [Example 54, 7-(3,5-Dimethylisoxazol-4-yl)-4-phenyl-2-pyrrolidin-1-yl-4,5-dihydroimidazo[1,5,4-de][1,4]benzoxazine] | < 1
Cn1nccc1-c1ccc2[nH]c(=O)n3c2c1OCC3c1ccccc1 (centres unmarked) [Example 35, 7-(1-Methyl-1H-pyrazol-5-yl)-4-phenyl-4,5-dihydroimidazo[1,5,4-de][1,4]benzoxazin-2(1H)-one] | < 1
Cc1noc(C)c1-c1cc(CNC(=O)CN(C)C)c2[nH]c(=O)n3c2c1OC[C@@H]3c1ccccn1 [Example 143, 2-(Dimethylamino)-N-{[(4S)-7-(3,5-dimethylisoxazol-4-yl)-2-oxo-4-pyridin-2-yl-1,2,4,5-tetrahydroimidazo[1,5,4-de][1,4]benzoxazin-9-yl]methyl}acetamide] | < 1
Cc1noc(C)c1-c1ccc2nc(N3CCC(O)CC3)n3c2c1OCC3c1ccccc1 (centres unmarked) [Example 57, 1-[7-(3,5-Dimethylisoxazol-4-yl)-4-phenyl-4,5-dihydroimidazo[1,5,4-de][1,4]benzoxazin-2-yl]piperidin-4-ol] | < 1
Cc1noc(C)c1-c1ccc2nc(N3CC[C@@H](NS(=O)(=O)C4CC4)C3)n3c2c1OC[C@@H]3c1ccccn1 [Example 218, N-{(3R)-1-[(4S)-7-(3,5-dimethylisoxazol-4-yl)-4-pyridin-2-yl-4,5-dihydroimidazo[1,5,4-de][1,4]benzoxazin-2-yl]pyrrolidin-3-yl}cyclopropanesulfonamide] | < 1
CCNc1nc2c(F)cc(-c3c(C)noc3C)c3c2n1C(c1cccnc1)CO3 (centres unmarked) [Example 158, 7-(3,5-Dimethylisoxazol-4-yl)-N-ethyl-9-fluoro-4-pyridin-3-yl-4,5-dihydroimidazo[1,5,4-de][1,4]benzoxazin-2-amine] | < 1
Cc1noc(C)c1-c1ccc2nc(N3CC[C@@H](N(C)C)C3)n3c2c1OC[C@@H]3c1ccccn1 [Example 180A, (3R)-1-[(4S)-7-(3,5-dimethylisoxazol-4-yl)-4-pyridin-2-yl-4,5-dihydroimidazo[1,5,4-de][1,4]benzoxazin-2-yl]-N,N-dimethylpyrrolidin-3-amine] | < 1
Cc1noc(C)c1-c1ccc2nc(N3CCOCC3)n3c2c1OC[C@@H]3c1ccccn1 [Example 161, (4S)-7-(3,5-dimethylisoxazol-4-yl)-2-morpholin-4-yl-4-pyridin-2-yl-4,5-dihydroimidazo[1,5,4-de][1,4]benzoxazine] | < 1
Cc1noc(C)c1-c1ccc2nc(N3CCN(C(=O)OC(C)(C)C)CC3)n3c2c1OCC3c1ccccc1 (centres unmarked) [Example 60] | < 1
CC(=O)NC1CCN(c2nc3ccc(-c4c(C)noc4C)c4c3n2[C@@H](c2ccccn2)CO4)CC1 [Example 190, N-{1-[(4S)-7-(3,5-dimethylisoxazol-4-yl)-4-pyridin-2-yl-4,5-dihydroimidazo[1,5,4-de][1,4]benzoxazin-2-yl]piperidin-4-yl}acetamide] | < 1
Cc1noc(C)c1-c1ccc2nc(N3CCCN(C(=O)OC(C)(C)C)CC3)n3c2c1OC[C@@H]3c1ccccn1 [Example 197, tert-butyl 4-[(4S)-7-(3,5-dimethylisoxazol-4-yl)-4-pyridin-2-yl-4,5-dihydroimidazo[1,5,4-de][1,4]benzoxazin-2-yl]-1,4-diazepane-1-carboxylate] | < 1
CCS(=O)(=O)N1CCCN(c2nc3ccc(-c4c(C)noc4C)c4c3n2[C@@H](c2ccccn2)CO4)CC1 [Example 248, (4S)-7-(3,5-dimethylisoxazol-4-yl)-2-[4-(ethylsulfonyl)-1,4-diazepan-1-yl]-4-pyridin-2-yl-4,5-dihydroimidazo[1,5,4-de][1,4]benzoxazine] | < 1
Cc1noc(C)c1-c1ccc2nc(N3CC(O)C3)n3c2c1OCC3c1ccccc1 (centres unmarked) [Example 59] | < 1
CC(=O)N1CCCN(c2nc3ccc(-c4c(C)noc4C)c4c3n2[C@@H](c2ccccn2)CO4)CC1 [Example 148, (4S)-2-(4-Acetyl-1,4-diazepan-1-yl)-7-(3,5-dimethylisoxazol-4-yl)-4-pyridin-2-yl-4,5-dihydroimidazo[1,5,4-de][1,4]benzoxazine] | < 1
CC(=O)N1CCN(c2nc3ccc(-c4c(C)noc4C)c4c3n2[C@@H](c2ccccn2)CO4)CC1 [Example 224, (4S)-2-(4-acetylpiperazin-1-yl)-7-(3,5-dimethylisoxazol-4-yl)-4-pyridin-2-yl-4,5-dihydroimidazo[1,5,4-de][1,4]benzoxazine] | < 1
Cc1noc(C)c1-c1ccc2nc(N3CCC(O)C3)n3c2c1OCC3c1ccccc1 (centres unmarked) [Example 55, 1-[7-(3,5-Dimethylisoxazol-4-yl)-4-phenyl-4,5-dihydroimidazo[1,5,4-de][1,4]benzoxazin-2-yl]pyrrolidin-3-ol] | < 1
Cc1noc(C)c1-c1ccc2nc(N3CCN4CCC[C@@H]4C3)n3c2c1OC[C@@H]3c1ccccn1 [Example 193B, (4S)-7-(3,5-dimethylisoxazol-4-yl)-2-[(8aR)-hexahydropyrrolo[1,2-a]pyrazin-2(1H)-yl]-4-pyridin-2-yl-4,5-dihydroimidazo[1,5,4-de][1,4]benzoxazine] | < 1
Cc1noc(C)c1-c1ccc2nc(N3CCCN(S(N)(=O)=O)CC3)n3c2c1OC[C@@H]3c1ccccn1 [Example 147, 4-[(4S)-7-(3,5-Dimethylisoxazol-4-yl)-4-pyridin-2-yl-4,5-dihydroimidazo[1,5,4-de][1,4]benzoxazin-2-yl]-1,4-diazepane-1-sulfonamide] | < 1
Cc1noc(C)c1-c1ccc2nc(N3CC(NS(C)(=O)=O)C3)n3c2c1OC[C@@H]3c1ccccn1 [Example 237, N-{1-[(4S)-7-(3,5-dimethylisoxazol-4-yl)-4-pyridin-2-yl-4,5-dihydroimidazo[1,5,4-de][1,4]benzoxazin-2-yl]azetidin-3-yl}methanesulfonamide] | < 1
Cc1noc(C)c1-c1cc(CO)c2[nH]c(=O)n3c2c1OCC3c1ccccn1 (centres unmarked) [Example 254, 7-(3,5-Dimethylisoxazol-4-yl)-9-(hydroxymethyl)-4-pyridin-2-yl-4,5-dihydroimidazo[1,5,4-de][1,4]benzoxazin-2(1H)-one] | < 1
Cc1noc(C)c1-c1ccc2nc(C3CCN(C(=O)OC(C)(C)C)CC3)n3c2c1OC[C@@H]3c1ccccn1 [Example 100, tert-Butyl 4-[(4S)-7-(3,5-dimethylisoxazol-4-yl)-4-pyridin-2-yl-4,5-dihydroimidazo[1,5,4-de][1,4]benzoxazin-2-yl]piperidine-1-carboxylate] | < 1

Same assay, conditions: Homo sapiens, KMS-12-BM, 72 h, 3 days, Cell Titer-GLO, read-out: KMS cellular IC50

Structure (SMILES) | IC50 [µM]
Cc1noc(C)c1-c1ccc2nc(N(C)CCO)n3c2c1OCC3c1ccccn1 (centres unmarked) [Example 185, 2-[[7-(3,5-dimethylisoxazol-4-yl)-4-pyridin-2-yl-4,5-dihydroimidazo[1,5,4-de][1,4]benzoxazin-2-yl](methyl)amino]ethanol] | < 1

Test system: C-myc in KMS.12.BM cells
Test: KMS.12.BM C-Myc ELISA Assay (Example C1)
Format: cell-based
Conditions: Homo sapiens, 2 h
Protocol: KMS.12.BM C-Myc ELISA Assay
KMS.12.BM cell line (human myeloma) was purchased from JCRB (Osaka, Japan) and maintained in RPMI with 10% FBS culture medium. To measure the C-myc inhibitory activity of the compounds, the KMS.12.BM cells are plated in the RPMI culture medium at 75000 cells/well/per 200 μL into a 96-well flat bottom polystyrene tissue culture plate (Corning through VWR, NJ), in the presence or absence of a concentration range of test compounds. After 2 h, cells are pelleted and lysed with Cell Extraction Buffer (BioSource, Carlsbad, Calif.) in the presence of protease inhibitors (Life Technologies, Grand Island, N.Y. and Sigma, St Louis, Mo.). Clarified lyses are tested in a C-myc commercial ELISA (Life Technologies, Grand Island, N.Y.).

IC50 [µM] | Structure (SMILES)
< 1 | CCNC(=O)c1ncccc1C1COc2c(-c3c(C)noc3C)ccc3[nH]c(=O)n1c23 (single isomer, unassigned) [Example 133, 3-[7-(3,5-dimethylisoxazol-4-yl)-2-oxo-1,2,4,5-tetrahydroimidazo[1,5,4-de][1,4]benzoxazin-4-yl]-N-ethylpyridine-2-carboxamide]
< 1 | Cc1noc(C)c1-c1ccc2[nH]c(=O)n3c2c1OCC3c1ccc(F)cc1F (centres unmarked) [Example 8, 7-(3,5-Dimethylisoxazol-4-yl)-4-(2,4-difluorophenyl)-4,5-dihydroimidazo[1,5,4-de][1,4]benzoxazin-2(1H)-one]
< 1 | Cc1noc(C)c1-c1ccc2nc(C(=O)N3CCOCC3)n3c2c1OC[C@@H]3c1ccccn1 [Example 94, (4S)-7-(3,5-Dimethylisoxazol-4-yl)-2-(morpholin-4-ylcarbonyl)-4-pyridin-2-yl-4,5-dihydroimidazo[1,5,4-de][1,4]benzoxazine]
< 1 | Cc1noc(C)c1-c1cc(C(C)O)c2[nH]c(=O)n3c2c1OC[C@@H]3c1ccccn1 (single isomer, unassigned) [Example 144A]
< 1 | Cc1noc(C)c1-c1ccc2nc(C3CCNC3)n3c2c1OC[C@@H]3c1ccccn1 (single isomer, unassigned) [Example 106A]
